Assays:
SMYD3 [1] = molecular target: T1, SMYD3 (Homo sapiens (Human), UniProt Q9H7B4); test: SMYD3 biochemical assay (SPA, 3H-SAM methylation of MEKK2 protein substrate); settings: read-out: SMYD3 Biochem IC50 (μM)*
In short: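 Full-length native human SMYD3 (E. coli-expressed, tags removed) preincubated with compounds 30 min at room temperature, then reaction started with 3H-SAM and GST-tagged MEKK2 protein in 25 mM Tris-Cl pH 8.0, 1 mM TCEP, 0.005% BSG, 0.005% Tween 20. Quenched with unlabelled SAM (100 uM final); 3H-MEKK2 counted by SPA.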

SMYD3 [2] = molecular target: T1, SMYD3; test: SMYD3 cell assay (Trimethyl-MEKK2 In-Cell Western in 293T/17 cells); type: cell-based
In short: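 In-Cell Western ratio of trimethyl-Lys260 MEKK2 to anti-flag signal; percent inhibition from DMSO and maximum-inhibition controls, IC50 by non-linear regression, triplicates.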

[3] = 293T/17 cells, read-out: SMYD3 Cell IC50 (μM)*

T1 sequence (Q9H7B4 whole entry): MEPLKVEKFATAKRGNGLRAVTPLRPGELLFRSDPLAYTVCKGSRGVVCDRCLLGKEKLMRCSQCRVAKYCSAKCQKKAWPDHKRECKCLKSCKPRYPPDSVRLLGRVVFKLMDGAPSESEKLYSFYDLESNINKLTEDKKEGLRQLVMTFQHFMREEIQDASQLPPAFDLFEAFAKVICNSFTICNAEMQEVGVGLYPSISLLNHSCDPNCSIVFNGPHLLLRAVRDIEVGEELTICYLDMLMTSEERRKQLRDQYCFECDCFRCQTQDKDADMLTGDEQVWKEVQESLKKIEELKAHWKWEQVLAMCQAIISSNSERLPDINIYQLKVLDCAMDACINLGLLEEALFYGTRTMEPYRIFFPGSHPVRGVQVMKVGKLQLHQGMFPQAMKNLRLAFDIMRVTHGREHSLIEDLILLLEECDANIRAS

SMILES	IC50 (SMYD3 [1]) [µM]	IC50 (SMYD3 [2]; [3]) [µM]	IC50 (SMYD3 [2]) [µM]
C[C@H]1C[C@@H](NC(=O)c2cc(C3CC3)on2)CCN1C(=O)C1CCCC(CN)C1 (stereo partly drawn) [compound 373, N-((2S,4S)-1-(3-(aminomethyl)cyclohexane-1-carbonyl)-2-methylpiperidin-4-yl)-5-cyclopropylisoxazole-3-carboxamide]	2.47	29.8	–
CC(=O)Nc1ccc(S(=O)(=O)N2CC[C@@H](NC(=O)c3cc(C4CC4)on3)C[C@@H]2C)cc1 [compound 377, N-((2S,4R)-1-((4-acetamidophenyl)sulfonyl)-2-methylpiperidin-4-yl)-5-cyclopropylisoxazole-3-carboxamide]	> 10	27.6	–
CC(=O)Nc1ccc(S(=O)(=O)N2CC[C@H](NC(=O)c3cc(C4CC4)on3)C[C@@H]2C)cc1 [compound 378, N-((2S,4S)-1-((4-acetamidophenyl)sulfonyl)-2-methylpiperidin-4-yl)-5-cyclopropylisoxazole-3-carboxamide]	0.577	2.74	–
CC(C)CN(C)c1ccc(S(=O)(=O)N2CC[C@H](NC(=O)c3cc(C4CC4)on3)C[C@@H]2C)cn1 [compound 381, 5-cyclopropyl-N-((2S,4S)-1-((6-(isobutyl(methyl)amino)pyridin-3-yl)sulfonyl)-2-methylpiperidin-4-yl)isoxazole-3-carboxamide]	> 10	> 40	–
C[C@H]1CN(S(=O)(=O)CCCN)CC[C@@H]1NC(=O)c1cc(C2CC2)on1 [compound 385, N-((3S,4S)-1-((3-aminopropyl)sulfonyl)-3-methylpiperidin-4-yl)-5-cyclopropylisoxazole-3-carboxamide]	0.0882	–	1.23
C[C@@H]1CN(S(=O)(=O)CCCN)CC[C@@H]1NC(=O)c1cc(C2CC2)on1 [compound 387, N-((3R,4S)-1-((3-aminopropyl)sulfonyl)-3-methylpiperidin-4-yl)-5-cyclopropylisoxazole-3-carboxamide]	0.07	–	0.788
NCCCS(=O)(=O)N1CC[C@@H](NC(=O)c2cc(C3CC3)on2)C[C@H]1Cc1ccccc1 [compound 390, N-((2R,4R)-1-((3-aminopropyl)sulfonyl)-2-benzylpiperidin-4-yl)-5-cyclopropylisoxazole-3-carboxamide]	0.464	2.97	–
C[C@H]1C[C@@H](NC(=O)c2cc(C3CC3)on2)CCN1C(=O)CC1(CN)CCCCC1 [compound 391, N-((2S,4S)-1-(2-(1-(aminomethyl)cyclohexyl)acetyl)-2-methylpiperidin-4-yl)-5-cyclopropylisoxazole-3-carboxamide]	5.72	> 10	–
NCCS(=O)(=O)N1[C@@H]2CC[C@H]1C[C@H](NC(=O)c1cc(C3CC3)on1)C2 [compound 395, N-((1R,3s,5S)-8-((2-aminoethyl)sulfonyl)-8-azabicyclo[3.2.1]octan-3-yl)-5-cyclopropylisoxazole-3-carboxamide]	0.611	3.16	–
NCCS(=O)(=O)N1[C@@H]2CC[C@H]1C[C@@H](NC(=O)c1cc(C3CC3)on1)C2 [compound 396, N-((1R,3r,5S)-8-((2-aminoethyl)sulfonyl)-8-azabicyclo[3.2.1]octan-3-yl)-5-cyclopropylisoxazole-3-carboxamide]	0.0417	0.375	–
CC(=O)Nc1ccc(S(=O)(=O)N2CC[C@H](NC(=O)c3cc(C4CC4)on3)C[C@H]2C)cc1 [compound 397, N-((2R,4S)-1-((4-acetamidophenyl)sulfonyl)-2-methylpiperidin-4-yl)-5-cyclopropylisoxazole-3-carboxamide]	> 10	> 10	–
C[C@H]1C[C@@H](NC(=O)c2cc(C3CC3)on2)CCN1S(=O)(=O)c1cccc(C#N)c1 [compound 398, N-((2S,4S)-1-((3-cyanophenyl)sulfonyl)-2-methylpiperidin-4-yl)-5-cyclopropylisoxazole-3-carboxamide]	0.212	1.21	–
O=C(N[C@@H]1C[C@H]2CC[C@@H](C1)N2S(=O)(=O)c1ccccc1)c1cc(C2CC2)on1 [compound 399, 5-cyclopropyl-N-((1R,3s,5S)-8-(phenylsulfonyl)-8-azabicyclo[3.2.1]octan-3-yl)isoxazole-3-carboxamide]	0.833	2.87	–
O=C(N[C@H]1C[C@H]2CC[C@@H](C1)N2S(=O)(=O)c1ccccc1)c1cc(C2CC2)on1 [compound 400, 5-cyclopropyl-N-((1R,3r,5S)-8-(phenylsulfonyl)-8-azabicyclo[3.2.1]octan-3-yl)isoxazole-3-carboxamide]	4.13	> 10	–
O=C(NC1CC2CCCC(C1)N2S(=O)(=O)c1ccccc1)c1cc(C2CC2)on1 (stereo not shown) [compound 401, 5-cyclopropyl-N-(9-(phenylsulfonyl)-9-azabicyclo[3.3.1]nonan-3-yl)isoxazole-3-carboxamide]	0.793	2.95	–
CC(=O)Nc1ccc(S(=O)(=O)N2C3CCCC2CC(NC(=O)c2cc(C4CC4)on2)C3)cc1 (stereo not shown) [compound 402, N-(9-((4-acetamidophenyl)sulfonyl)-9-azabicyclo[3.3.1]nonan-3-yl)-5-cyclopropylisoxazole-3-carboxamide]	4.92	> 10	–
CC(=O)Nc1ccc(S(=O)(=O)N2[C@@H]3CC[C@H]2C[C@@H](NC(=O)c2cc(C4CC4)on2)C3)cc1 [compound 403, N-((1R,3r,5S)-8-((4-acetamidophenyl)sulfonyl)-8-azabicyclo[3.2.1]octan-3-yl)-5-cyclopropylisoxazole-3-carboxamide]	10	> 10	–
O=C(N[C@@H]1C[C@H]2CC[C@@H](C1)N2S(=O)(=O)c1ccc2[nH]c(=O)oc2c1)c1cc(C2CC2)on1 [compound 404, 5-cyclopropyl-N-((1R,3s,5S)-8-((2-oxo-2,3-dihydrobenzo[d]oxazol-6-yl)sulfonyl)-8-azabicyclo[3.2.1]octan-3-yl)isoxazole-3-carboxamide]	1.4	2.92	–
O=C(N[C@H]1C[C@H]2CC[C@@H](C1)N2S(=O)(=O)c1ccc2[nH]c(=O)oc2c1)c1cc(C2CC2)on1 [compound 405, 5-cyclopropyl-N-((1R,3r,5S)-8-((2-oxo-2,3-dihydrobenzo[d]oxazol-6-yl)sulfonyl)-8-azabicyclo[3.2.1]octan-3-yl)isoxazole-3-carboxamide]	9.39	> 10	–
O=C(N[C@@H]1CCN(S(=O)(=O)CCN2CCCC2)[C@H](Cc2ccccc2)C1)c1cc(C2CC2)on1 [compound 407, N-((2R,4R)-2-benzyl-1-((2-(pyrrolidin-1-yl)ethyl)sulfonyl)piperidin-4-yl)-5-cyclopropylisoxazole-3-carboxamide]	3.81	> 10	–
O=C(NC1CC2CCCC(C1)N2S(=O)(=O)CCCN1CCOCC1)c1cc(C2CC2)on1 (stereo not shown) [compound 410, 5-cyclopropyl-N-(9-((3-morpholinopropyl)sulfonyl)-9-azabicyclo[3.3.1]nonan-3-yl)isoxazole-3-carboxamide]	6.32	> 10	–
COCCN(C)c1ccc(S(=O)(=O)N2CC[C@H](NC(=O)c3cc(C4CC4)on3)C[C@@H]2C)cn1 [compound 412, 5-cyclopropyl-N-((2S,4S)-1-((6-((2-methoxyethyl)(methyl)amino)pyridin-3-yl)sulfonyl)-2-methylpiperidin-4-yl)isoxazole-3-carboxamide]	2.12	8.22	–
COCCNc1ccc(S(=O)(=O)N2CC[C@H](NC(=O)c3cc(C4CC4)on3)C[C@@H]2C)cn1 [compound 413, 5-cyclopropyl-N-((2S,4S)-1-((6-((2-methoxyethyl)amino)pyridin-3-yl)sulfonyl)-2-methylpiperidin-4-yl)isoxazole-3-carboxamide]	1.48	4.51	–
C[C@H]1C[C@@H](NC(=O)c2cc(C3CC3)on2)CCN1S(=O)(=O)c1ccc(N(C)CCN2CCOCC2)nc1 [compound 414, 5-cyclopropyl-N-((2S,4S)-2-methyl-1-((6-(methyl(2-morpholinoethyl)amino)pyridin-3-yl)sulfonyl)piperidin-4-yl)isoxazole-3-carboxamide]	0.889	2.61	–
C[C@H]1C[C@H](NC(=O)c2cc(C3CC3)on2)CCN1S(=O)(=O)c1ccc(NCCN)nc1 [compound 415, N-((2S,4R)-1-((6-((2-aminoethyl)amino)pyridin-3-yl)sulfonyl)-2-methylpiperidin-4-yl)-5-cyclopropylisoxazole-3-carboxamide]	0.135	5.62	–
C[C@H]1CN(C(=O)[C@H]2CC[C@H](N)CC2)[C@@H](C)C[C@H]1NC(=O)c1cc(C2CC2)on1 [compound 419, N-((2S,4R,5S)-1-((1r,4S)-4-aminocyclohexane-1-carbonyl)-2,5-dimethylpiperidin-4-yl)-5-cyclopropylisoxazole-3-carboxamide]	1.95	> 10	–
NCCCS(=O)(=O)N1CC[C@H](NC(=O)c2cc(C3CC3)on2)C[C@H]1Cc1ccccc1 [compound 423, N-((2R,4S)-1-((3-aminopropyl)sulfonyl)-2-benzylpiperidin-4-yl)-5-cyclopropylisoxazole-3-carboxamide]	0.25	1.86	–
NCCCS(=O)(=O)N1CC[C@H](NC(=O)c2cc(C3CC3)on2)C[C@@H]1Cc1ccccc1 [compound 424, N-((2S,4S)-1-((3-aminopropyl)sulfonyl)-2-benzylpiperidin-4-yl)-5-cyclopropylisoxazole-3-carboxamide]	0.228	1.8	–
CC1CC(NC(=O)c2cc(C3CC3)on2)CCN1C(=O)Cc1ncc[nH]1 (stereo not shown) [compound 427, N-(1-(2-(1H-imidazol-2-yl)acetyl)-2-methylpiperidin-4-yl)-5-cyclopropylisoxazole-3-carboxamide]	> 10	> 10	–

Source: patent US10577363B2, “Substituted piperidine compounds” (EPIZYME, INC., priority 2014, dated 2020)
